In patent publication US20250312412A1, “METHODS FOR TREATING DRY EYE DISEASE” (The Schepens Eye Research Institute, Inc., priority 2022, published 2025):
Residues, ends and D or L forms follow the SMILES beside them.

Experiments:
[1] = tested on: human corneal epithelial cells; test: Co-culture of human corneal epithelial cells and Th17 cells, density and morphology by microscopy, Examples 2 and 3; format: cell-based; conditions: 0.1 μM, 1 μM, 10 μM and 100 μM; 24 hours
Protocol: A co-culture of human corneal epithelial cells and Th17 cells was prepared, to mimic the in vivo interaction between Th17 cells and cornea tissue in dry eye disease. The therapeutic efficacy of an IL-17 inhibitor to protect the human corneal epithelial cells from Th17-induced damage was tested. Immortalized human corneal epithelial cells were obtained. To acquire human Th17 cells, naïve CD4+ T cells were first purified from primary human peripheral blood mononuclear cells (StemCell) by negative selection using MACS separation, follow by in vitro polarization to Th17 cells using human Th17 cell differentiation kit (RnD Systems) in X-VIVO 15 medium (Lonza). Successful differentiation of human Th17 cells was confirmed by flow cytometry before co-culture. At about 80% confluence of human corneal epithelial cell culture, 1×10^5 Th17 cells were added, with and without an IL-17 inhibitor. After 24 hours of co-culture in the presence of the IL-17 inhibitor, the density and morphology of human corneal epithelial cells were observed under a bright-light inverted microscope equipped with a camera.
A co-culture of human corneal epithelial cells and Th17 cells was prepared, to mimic the in vivo interaction between Th17 cells and cornea tissue in dry eye disease. The therapeutic efficacy of an IL-17 inhibitor to protect the human corneal epithelial cells from Th17-induced damage was tested. […]

goblet cells = test: Goblet cell count in conjunctival tissue sections of dry eye mice, Example 1; format: in vivo; conditions: conjunctiva, mice with dry eye disease treated twice daily
Protocol: With continued reference to the study of Example 1, ocular tissue was harvested from the mice and tissue sections were prepared for microscopy analysis. Cross-sections of the conjunctiva were stained and the images were inspected to quantify goblet cell density. Goblet cells within the conjunctival epithelium secrete mucins onto the surface of the eye. FIG. 3A is an image of conjunctiva from a healthy mouse with no dry eye disease, and the goblet cells are visible as the darkly stained, plump cells. FIGS. 3B-3E are images from the conjunctiva from a subject in the animals with dry eye disease and treated twice daily with saline as a control (FIG. 3B), cyclosporine ophthalmic emulsion (RESTASIS®; FIG. 3C), lifitegrast ophthalmic solution (XIIDRA®) (FIG. 3D), or anti-IL-17A antibody (FIG. 3E). The numbers of goblet cells were counted, and FIG. 3F is a bar graph of the percent of normal goblet cells for the normal (healthy) mice and mice with dry eye disease treated with saline, cyclosporine, lifitegrast or an IL-17A inhibitor. […] Subjects with dry eye disease and treated with cyclosporine or with lifitegrast had about 60% of the normal number of goblet cells. […]

[2] = tested on: mice induced with dry eye disease; test: Corneal fluorescein staining (CFS) score in mice with induced dry eye disease, Example 1; format: in vivo; conditions: topical to the eye, day 4 to day 12; antibody 1 wt % once or twice daily, lifitegrast 5 wt % twice daily, cyclosporine 0.05 wt % twice daily
Protocol: FIG. 1 is a graph of corneal fluorescein staining (CFS) scored using the National Eye Institute Industry Workshop Scale of 0-15, as a function of time, in days, in mice induced with dry eye disease by placing them in a controlled-environment chamber (relative humidity: <20%, dry airflow: 15 L/min, temperature: 21˜23° C.) for 14 days. Corneal epithelial disease was evaluated using corneal fluorescein staining (CFS) and scored using the National Eye Institute Industry Workshop Scale of 0-15, at day 0 (normal baseline), day 4 (before instillation of topical therapy), day 7, day 10, and […] in mice treated by topical application to the eye with an anti-IL-17A antibody once daily (closed circles) or twice daily (closed squares), lifitegrast (XIIDRA®) twice daily (inverted triangles), cyclosporine (RESTASIS®) twice daily (triangles), or saline twice daily (diamonds).
In a first study, described in Example 1, treatment of dry eye disease with an IL-17 cytokine inhibitor, lifitegrast ophthalmic solution (XIIDRA®), and cyclosporine ophthalmic emulsion (RESTASIS®) were compared. […] The test compounds were applied topically to the eye for 9 days (from day 4 to day 12), and disease severity was evaluated using corneal fluorescein staining (CFS) and scored using the National Eye Institute Industry Workshop Scale of 0-15 on days 4, 7, 10 and 12. […]

| SMILES | toxicity to human corneal epithelial cells [1] | goblet cells, percent of the normal number (goblet cells) | effect on dry eye disease severity (disease score, CFS) [2] |
| --- | --- | --- | --- |
| CC[C@H](C)[C@H](NC(=O)[C@H](Cc1c[nH]c2ccccc12)NC(=O)[C@H](CC(=O)O)NC(=O)[C@H](Cc1c[nH]c2ccccc12)NC(=O)[C@H](CC(C)C)NC(=O)[C@H](CC(=O)O)NC(=O)[C@H](C)NC(=O)[C@@H]1CCCN1C(=O)[C@@H](NC(=O)[C@@H](NC(=O)[C@@H](NC(=O)[C@H](Cc1c[nH]cn1)NC(=O)[C@@H](N)C(C)C)C(C)C)[C@@H](C)O)[C@@H](C)CC)C(=O)N[C@@H](CC(N)=O)C(=O)N[C@@H](CCCCN)C(=O)O [SEQ ID NO: 1, VHVTIPADLWDWINK] (H-VHVTIPADLWDWINK-OH) | not toxic to the human corneal epithelial cells | – | – |
| CS(=O)(=O)c1cccc(C[C@H](NC(=O)c2c(Cl)cc3c(c2Cl)CCN(C(=O)c2ccc4ccoc4c2)C3)C(=O)O)c1 [lifitegrast] | – | about 60% | no improvement in reducing in disease severity for the first six days of treatment, followed by an improved disease score at day 12 |
